Data from US5837219A, “Labelled acyl-L-carnitine and diagnostic agent” (Japan Science and Technology Corporation, priority 1995, dated 1998).
“Also recorded” adds a separate entry of the source.

How the values were obtained:
[1] = PET uptake of labelled compounds into the brain of anesthetized rhesus monkeys after intravenous administration; assay type: in vivo, rhesus monkey; details: i.v.; for uptake value into the brain: rhesus monkey under anesthesia, whole brain (WB 9), FIG. 1
Excerpt: ACN, ACM, CRN and ACC prepared in Examples 1, 3 and 5 in equal amounts were intravenously administered to rhesus monkeys under anesthesia, respectively, at intervals of two hours, and the uptake value of those labelled compounds into the brain (whole brain: WB 9) and into the temporal muscle (TEM 11) was traced with time by the use of PET. The uptake value was obtained by the following calculation: [formula]

[2] = PET uptake of ACM into the visual cortex, normal volunteers versus CFS patients; assay type: in vivo, human (normal volunteers; details: i.v.
Experimental: (§1) ACM synthesized in Example 1 was intravenously administered to normal volunteers (n=5) and CFS patients (n=6), and the ACM uptake values into the whole brain and visual cortex were measured with time by means of PET.

[3] = ACM uptake into erythrocytes and erythrocyte/blood plasma ratio (hematocrit tube and imaging plate), normal volunteers versus CFS patients; assay type: in vivo, human (normal volunteers
Experimental: (§2) Blood was sampled from the normal volunteers and the CFS patients and the ACM uptake values in the blood plasma and blood cells thereof was measured by the combined method of hematocrit tube and imaging plate.

[4] = PET uptake of ACM into the whole brain, normal volunteers versus CFS patients; assay type: in vivo, human (normal volunteers; details: i.v., normal n=5, CFS n=6 (FIG. 3: n=5)
Experimental: as §1

[5] = ACM uptake value in blood plasma (hematocrit tube and imaging plate), normal volunteers versus CFS patients; assay type: in vivo, human (normal volunteers; details: normal n=5, CFS n=6, FIG. 6
Experimental: as §2

[6] = PET uptake of ACM into the whole brain of a normal volunteer, rest and task condition; assay type: in vivo, human (normal volunteer); details: i.v., FIG. 2
Experimental: ACM synthesized in Example 3 was intravenously administered to a normal volunteer, and the uptake value of ACM into the whole brain was measured by use of PET in both the rest condition (WR 9) and task condition (calculation task, memory task: WB9-TASK).

SMILES: CC(=O)O[C@H](CC(=O)[O-])C[N+](C)(C)[11CH3] [ACC, acetyl-L-carnitine with the same label]
- uptake value into the brain [1]: not taken up into the brain almost at all

SMILES: C[N+](C)(C)C[C@@H](CC(=O)[O-])OC([11CH3])=O [ACM, Acetyl-L-carnitine with the ^11 C-labelled secondary carbon atom of acetyl group]
- difference between CFS patients and normal volunteers in ACM uptake, visual cortex versus whole brain ([2]; FIG. 3 and FIG. 4): particularly observed in the visual cortex than in the whole brain
- increase with time in the ACM uptake value into the visual cortex, CFS patients versus normal volunteers ([2]; normal n=5, CFS n=6, FIG. 4): significantly lower than that in the normal volunteers
- uptake value into the brain [1]: excellent
- change of brain uptake with time ([1]; rhesus monkey, up to 60 minutes after the administration): almost linearly increased up to 60 minutes after the administration
- ratio erythrocyte/blood plasma of ACM uptake value, increase with time, CFS patients ([3]; CFS patients n=2, FIG. 7): inhibited in the CFS patients
- ACM uptake value into erythrocyte, CFS patients versus normal volunteers ([3]; inferred from erythrocyte/blood plasma ratio and unchanged plasma uptake): significantly lower than that in the normal volunteers
- ratio erythrocyte/blood plasma of ACM uptake value, change with time, normal subjects ([3]; normal subjects n=2, FIG. 7): increased with time in the normal subjects
- increase with time in the ACM uptake value into the whole brain, CFS patients versus normal volunteers [4]: significantly lower than that in the normal volunteers
- ACM uptake value in blood plasma, course with time, normal volunteers and CFS patients [5]: almost the same course; also recorded: no difference
- uptake into the whole brain in the task condition relative to rest ([6]; calculation and memory task versus rest): about twice
- uptake into the whole brain with time ([6]; rest condition): taken up with time even during rest condition

SMILES: C[11C](=O)O[C@H](CC(=O)[O-])C[N+](C)(C)C [ACN, Acetyl-L-carnitine with ^11 C-labelled primary carbon atom of acetyl group]
- uptake value into the brain [1]: taken up into the brain only slightly

SMILES: C[N+](C)([11CH3])C[C@H](O)CC(=O)[O-] [CRN, L-carnitine with the ^11 C-labelled N-methyl carbon atom of carnitine, reference compound]
- uptake value into the brain [1]: not taken up into the brain almost at all
